ChEMBL document CHEMBL5728262, “Oxadiazolones as transient receptor potential channel inhibitors” (2021)

Molecular target: Transient receptor potential cation channel subfamily A member 1 (Homo sapiens, UniProt O75762)
Test: FLIPR Assay: The IC50 (effective concentration) of compounds on the human and rat TRPA1 channels were determined using a FLIPR Tetra instrument. CHO cells expressing TRPA1 were plated into 384-well plates, incubated overnight at 37° C., and loaded with BD calcium indicator dye for 1 hr at 37° C. followed by 15 minutes at room temperature. The assay buffer was Hank's Balanced Salt Solution (HBSS) containing 20 mM HEPES (pH readjusted to 7.4) along with 0.02% BSA.Following dye load and plate cool down, compounds were added to the cells using FLIPR Tetra. Plates were then incubated with compounds for 20 minutes at room temperature prior to adding agonist. […] Fixing the Hill coefficient will generally reduce variability of the IC50 determination. The IC50 results were individually examined to make sure the MIN and MAX points were set correctly prior to validation of the results.

Transient receptor potential cation channel subfamily A member 1, sequence (O75762 whole entry): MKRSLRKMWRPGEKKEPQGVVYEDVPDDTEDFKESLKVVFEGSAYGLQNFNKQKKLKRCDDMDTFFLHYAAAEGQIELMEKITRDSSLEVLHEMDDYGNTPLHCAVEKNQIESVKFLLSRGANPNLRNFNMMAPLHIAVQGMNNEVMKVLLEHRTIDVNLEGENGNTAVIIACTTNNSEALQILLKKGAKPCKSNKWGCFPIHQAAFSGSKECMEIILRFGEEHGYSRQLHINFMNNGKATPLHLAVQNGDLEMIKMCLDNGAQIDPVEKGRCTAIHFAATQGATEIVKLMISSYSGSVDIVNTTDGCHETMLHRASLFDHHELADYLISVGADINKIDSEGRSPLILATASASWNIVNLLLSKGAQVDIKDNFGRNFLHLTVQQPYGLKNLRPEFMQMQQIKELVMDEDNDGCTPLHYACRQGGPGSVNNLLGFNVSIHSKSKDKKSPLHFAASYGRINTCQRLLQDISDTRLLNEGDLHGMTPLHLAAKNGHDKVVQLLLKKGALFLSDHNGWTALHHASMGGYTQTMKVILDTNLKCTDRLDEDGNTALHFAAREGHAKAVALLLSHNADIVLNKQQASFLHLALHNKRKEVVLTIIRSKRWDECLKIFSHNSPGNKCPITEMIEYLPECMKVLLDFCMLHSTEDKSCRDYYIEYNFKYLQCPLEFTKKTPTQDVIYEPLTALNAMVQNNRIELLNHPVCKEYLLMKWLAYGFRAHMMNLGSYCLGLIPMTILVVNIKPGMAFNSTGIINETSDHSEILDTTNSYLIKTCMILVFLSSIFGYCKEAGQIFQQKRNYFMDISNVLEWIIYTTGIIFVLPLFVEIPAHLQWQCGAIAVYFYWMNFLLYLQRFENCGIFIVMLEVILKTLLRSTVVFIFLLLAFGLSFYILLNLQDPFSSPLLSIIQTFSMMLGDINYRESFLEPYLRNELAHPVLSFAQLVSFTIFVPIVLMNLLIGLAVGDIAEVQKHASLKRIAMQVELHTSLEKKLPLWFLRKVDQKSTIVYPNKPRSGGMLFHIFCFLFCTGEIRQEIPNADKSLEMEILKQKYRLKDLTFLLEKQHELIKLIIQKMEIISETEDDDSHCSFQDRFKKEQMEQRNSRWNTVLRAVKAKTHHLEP

`Cn1nc(C#N)c2ncn(Cc3nn(CCc4ccc(Cl)cc4)c(=O)o3)c(=O)c21` showed an IC50 of 100 nM.
